Earlier results in patent US6284845A, “Low temperature cure carboxyl terminated polyesters” (McWhorter Technologies, priority 1999, dated 2001).

What was measured:
[1] = system: rat
[2] = system: rabbit
[3] = system: rabbit; remark: listed apart in the source
[4] = system: guinea pig

Row | Compound | Acute oral toxicity LD50 [1] | Primary skin irritation [2] | Primary eye irritation [3] | Primary skin irritation [4]
1 | CC(O)CN(CC(C)O)C(=O)CCCCC(=O)N(CC(C)O)CC(C)O (stereo not drawn) [Primid QM-1260, N,N,N',N'-Tetrakis (2-hydroxypropyl) adipamide] | > 2000 mg/kg | not irritating | not irritating | 
2 | O=C(CCCCC(=O)N(CCO)CCO)N(CCO)CCO [Primid XL-552, N,N,N',N'-Tetrakis (2-hydroxyethyl) adipamide] | > 5000 mg/kg |  | not irritating | not irritating
